In patent US6818765B1, “Benzene-sulphonamide derivatives and their uses” (Universite de Liege, priority 1999, dated 2004):
Read-outs that look alike come from different tables or passages of the source.

Target: T1, thromboxane A2 receptors (TPα) of human platelets (Homo sapiens, UniProt P21731)
T1 construct: endogenous in cells; host or cells: human platelets
T1 sequence (P21731 1-343): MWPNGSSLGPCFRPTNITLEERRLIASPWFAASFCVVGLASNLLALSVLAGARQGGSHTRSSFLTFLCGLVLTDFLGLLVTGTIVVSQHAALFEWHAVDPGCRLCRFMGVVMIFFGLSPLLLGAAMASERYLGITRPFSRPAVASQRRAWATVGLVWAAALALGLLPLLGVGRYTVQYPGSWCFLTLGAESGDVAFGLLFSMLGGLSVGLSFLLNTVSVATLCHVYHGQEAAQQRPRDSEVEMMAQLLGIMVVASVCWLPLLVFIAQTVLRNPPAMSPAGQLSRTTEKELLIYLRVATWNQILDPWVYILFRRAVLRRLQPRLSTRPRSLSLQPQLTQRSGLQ
Assay: Binding test: displacement of [3H]SQ-29.548 from human platelet thromboxane A2 receptors
Conditions: for inhibition at 1 µM: read-out: Affinity: percent of [3H]SQ-29.548 specifically substituted by the examined compound, compound 10^-6 M; for inhibition at 0.1 µM: read-out: Affinity: percent of [3H]SQ-29.548 specifically substituted by the examined compound, compound 10^-7 M
Description: To operate a first selection, the capacity of these compounds to displace in a specific way a tritium ligand, the [^3H]
Cozzi P., Giordani A., Menichincheri M., Pillan A., Pinciroli V., Rossi A., Tonani R., Volpi D., Tamburin M., Ferrario R., Fusar D., Salvati P.,—Agents combining thromboxane receptor antagonism with thromboxane synthase inhibition:[[[2-(1H-imidazol-1-yl)ethylidene]amino]oxy]alkanoic acids.—J. Med. Chem., 1994, 37, 3588-3604.

SMILES	Affinity: percent of [3H]SQ-29.548 specifically substituted by the examined compound, 10^-6M	Affinity: percent of [3H]SQ-29.548 specifically substituted by the examined compound, 10^-7M	also measured
CC(C)NC(=O)NS(=O)(=O)c1cc([N+](=O)[O-])ccc1NC(C)c1ccccc1 (racemic) [Compound 75]	93.1%		
CC(Nc1ccc([N+](=O)[O-])cc1S(=O)(=O)NC(=O)NC(C)(C)C)c1ccccc1 (racemic) [Compound 76]			IC50: 3.5 nM; inhibition at 1 µM: 97.6%; inhibition at 0.1 µM: 93.5%
CC(C)NC(=O)NS(=O)(=O)c1cc([N+](=O)[O-])ccc1NC1CCCCCC1 [Compound 1]	93.6%	68.0%	
CC(C)NC(=O)NS(=O)(=O)c1cc([N+](=O)[O-])ccc1NC1CCCC1 [Compound 2]	67.7%		
Cc1cccc(Nc2ccc([N+](=O)[O-])cc2S(=O)(=O)NC(=NC#N)NC(C)C)c1 [Compound 3]	20.1%		
N#CN=C(NC1CCCCC1)NS(=O)(=O)c1cc([N+](=O)[O-])ccc1NC1CCCC1 [Compound 4]	50.0%		
N#CN=C(NC1CCCCC1)NS(=O)(=O)c1cc([N+](=O)[O-])ccc1NC1CCCCC1 [Compound 5]	72.1%		
Cc1cccc(Nc2ccc([N+](=O)[O-])cc2S(=O)(=O)NC(=NC#N)NC2CCCCC2)c1 [Compound 6]	29.8%		
CC(C)NC(=NC#N)NS(=O)(=O)c1cc([N+](=O)[O-])ccc1NC1CCCCC1 [Compound 7]	42.9%		
CC(C)NC(=NC#N)NS(=O)(=O)c1cc([N+](=O)[O-])ccc1NC1CCCCCC1 [Compound 8]	33.0%		
CC(C)NC(=NC#N)NS(=O)(=O)c1cc([N+](=O)[O-])ccc1NC1CCCCCCC1 [Compound 9]	15.4%		
Cc1cccc(Nc2ccc([N+](=O)[O-])cc2S(=O)(=O)NC(=C[N+](=O)[O-])NC2CCCCC2)c1 [Compound 10]	57.7%		
Cc1cccc(Nc2ccc([N+](=O)[O-])cc2S(=O)(=O)NC(=S)NC(C)C)c1 [Compound 11]	63.7%		
CC(C)NC(=S)NS(=O)(=O)c1cc([N+](=O)[O-])ccc1NC1CCCCCC1 [Compound 12]	67.2%		
CC(C)NC(=O)NS(=O)(=O)c1cc([N+](=O)[O-])ccc1NC1CCCCC1 [Compound 13]	97.7%	60.3%	
CC(C)NC(=S)NS(=O)(=O)c1cc([N+](=O)[O-])ccc1NC1CCCCC1 [Compound 14]	92.9%	34.0%	
CC(C)NC(=S)NS(=O)(=O)c1cc([N+](=O)[O-])ccc1NC1CCCCCCC1 [Compound 15]	81.0%	16.6%	
O=[N+]([O-])c1ccc(NC2CCCCC2)c(S(=O)(=O)NC(=S)NC2CCCCC2)c1 [Compound 16]	100%	46.1%	
Cc1cccc(Nc2ccc([N+](=O)[O-])cc2S(=O)(=O)NC(=O)NC(C)(C)C)c1 [Compound 19]	97.8%	93.3%	IC50 (read-out: IC 50: concentration required for replacing 50% of [3H]SQ-29.548 bound to receptors TPα): 3.96 nM

SMILES	Affinity: percent of [3H]SQ-29.548 specifically substituted by the examined compound, 10^-6M	Affinity: percent of [3H]SQ-29.548 specifically substituted by the examined compound, 10^-7M	also measured
CCCNc1ccc([N+](=O)[O-])cc1S(=O)(=O)NC(=O)NC(C)C [Compound 20]	1.6%		
CC(C)NC(=O)NS(=O)(=O)c1cc([N+](=O)[O-])ccc1NCc1ccccc1 [Compound 21]	92.2%	44.2%	
O=C(NC1CCCCC1)NS(=O)(=O)c1cc([N+](=O)[O-])ccc1NC1CCCCCCC1 [Compound 23]	95.5%	62.9%	
Cc1cccc(Nc2ccc(C#N)cc2S(=O)(=O)NC(=O)NC(C)C)c1 [Compound 24]	73.7%		
CC(C)(C)NC(=O)NS(=O)(=O)c1cc([N+](=O)[O-])ccc1NC1CCCCCCC1 [Compound 26]			IC50: 16.9 nM; inhibition at 1 µM: 94.3%; inhibition at 0.1 µM: 93.3%
CCNC(=O)NS(=O)(=O)c1cc([N+](=O)[O-])ccc1NC1CCCCC1 [Compound 27]	79.6%		
CCNC(=O)NS(=O)(=O)c1cc([N+](=O)[O-])ccc1NC1CCCCCC1 [Compound 28]	81.9%	39.6%	
Cc1ccccc1Nc1ccc([N+](=O)[O-])cc1S(=O)(=O)NC(=O)NC(C)C [Compound 30]	95.1%	80.8%	
C=CCNC(=O)NS(=O)(=O)c1cc([N+](=O)[O-])ccc1Nc1ccccc1 [Compound 31]	80.5%	42.2%	
C=CCNC(=O)NS(=O)(=O)c1cc([N+](=O)[O-])ccc1NC1CCCCC1 [Compound 32]	86.7%	46.0%	
C=CCNC(=O)NS(=O)(=O)c1cc([N+](=O)[O-])ccc1NC1CCCCCC1 [Compound 33]	86.6%	52.4%	
C=CCNC(=O)NS(=O)(=O)c1cc([N+](=O)[O-])ccc1NC1CCCCCCC1 [Compound 34]	77.3%		
CCCNc1ccc([N+](=O)[O-])cc1S(=O)(=O)NC(=S)NC(C)C [Compound 35]	45.0%		
CC(C)NC(=S)NS(=O)(=O)c1cc([N+](=O)[O-])ccc1NCc1ccccc1 [Compound 36]	75.6%		
CC(C)NC(=S)NS(=O)(=O)c1cc([N+](=O)[O-])ccc1NC1CCCC1 [Compound 37]	72.3%		
CC(C)NC(=S)NS(=O)(=O)c1cc([N+](=O)[O-])ccc1NC1CCCCC1 [Compound 38]	77.2%		
CCNC(=S)NS(=O)(=O)c1cc([N+](=O)[O-])ccc1NC1CCCCCC1 [Compound 39]	74.5%		
O=[N+]([O-])c1ccc(NC2CCCCCCC2)c(S(=O)(=O)NC(=S)NC2CCCCC2)c1 [Compound 41]	75.9%		
O=[N+]([O-])c1ccc(NC2CCCCC2)c(S(=O)(=O)NC(=S)NCc2ccco2)c1 [Compound 42]	92.3%	50.5%	
